Article PMC4645123, “Catestatin attenuates endoplasmic reticulum induced cell apoptosis by activation type 2 muscarinic acetylcholine receptor in cardiac ischemia/reperfusion” (Scientific Reports, 2015)

Assays:
[1] = system: H9c2 cells; assay: cAMP assay (cAMP-Glo Max Assay Kit); assay type: cell-based, rat; details: for effect of antagonist on CST lowering of isoproterenol-induced cAMP / effect of antagonist on CST lowering of forskolin-induced cAMP: AF-DX116 100 nM or himbacine 1 μM 20 min; for effect of antagonist on CST lowering of isoproterenol-induced cAMP: then CST 50 nM with isoproterenol 1 μM; for effect of antagonist alone on increased cAMP level with isoproterenol: AF-DX116 100 nM or himbacine 1 μM, 20 min pretreatment, isoproterenol 1 μM; for effect of antagonist on CST lowering of forskolin-induced cAMP: pirenzepine 1 μM, then CST 50 nM with forskolin 100 μM
Experimental: H9c2 cells were subcultured at 1 x 10^4 cells in 96-well plates. Cell were pretreated with […]
pirenzepine (1 μM), AF-DX116 (100 nM) or himbacine (1 μM) for 20 min, then incubated with CST (50 nM) or carbamoylcholine (100 μM) along with isoproterenol (1 μM) or forskolin (100 μM) for 30 min. Cell underwent cAMP assay with the cAMP-Glo Max Assay

[2] = molecular target: M2 receptor; details: read-out: KD values, binding ability to M2 receptor; cited from earlier work
From the text: Muscarinic receptor expression is abundant in ventricular muscle. Acetylcholine has protective role in cardiac I/R in vitro, but it is non-selective ligand and activates all cholinergic receptor subtype, which limited its application due to enormous side effects. Here we identified that CST is a selective ligand of M2 receptor with high affinity and its intracellular signal (cAMP, PI3 K and ERK1/2) is consistent with M2 receptor agonist.

[3] = system: ischemic-reperfused rat heart; details: peptide 100 nM treatment for 2 h during reperfusion phase; cited from earlier work
Experimental: Firstly we identified the endogenous CST reducing after I/R, but its precursor ChgA expression were no changes. That means increased enzymes (which catalyzed ChgA to generate CST) activity during I/R, although the enzymes were not identified until now. CST pretreatment compensated to endogenous CST decrease, thus lowered the infarct size and improved cardiac function in rats under I/R, which agreed with studies of CST post-conditioning[16][17]. However, human wild type CST (100 nM) treatment for 2 h during reperfusion phase increased, but Gly^364Ser variant peptide lowered infarct size; becaus ...

[4] = system: H9c2 cardiomyoblasts; assay: Apoptosis (cleaved caspase-3 staining) in cells under A/R or ER stress inducers; assay type: cell-based, rat; details: PD98059 20 μM or wortmannin 10 nM for 30 min, then CST 100 nM 30 min
Experimental: H9c2 rat cardiomyoblasts or neonatal cardiomyocytes were cultured in DMEM with 10% fetal bovine serum (FBS) and 1% penicillin/streptomycin at 37 °C, 5% CO2. Medium was changed to fresh medium (serum-free), and cells were cultured under anoxia with 95% N2 and 5% CO2 for 12 h at 37 °C, then incubated in a standard incubator for 4 h (A/R)[38]. […] page 1: Catestatin attenuates endoplasmic reticulum induced cell apoptosis by activation type 2 muscarinic acetylcholine receptor in cardiac ischemia/reperfusion Feng Liao1*, Yang Zheng1*, Junyan Cai1, Jinghui Fan1, Jing Wang1, Jichun Yang1,2, Qinghua Cui1,2, Guoheng Xu1, Chaoshu Tang1, Bin Geng1,2 1. Department of Physiology and Pathophysiology, School of Basic Medical Science, Peking University, P.R. China. 2. Center for Noncoding RNA Medicine, Peking University Health Science Center Online Methods 1. Western blot analysis Cultured H9c2 cells or rat hearts were lysed in RIPA lysis buffer (Cell Signaling). Proteins were denatured and 50 μg protein was loaded and isolated by SDS-PAGE electrophoresis, then transferred to a nitrocellulose membrane. […] The antigens were detected by the chemiluminescence method (ECL western blot detection kit, Applygen) with horseradish peroxidase-linked anti-mouse or anti-rabbit secondary antibody. […] Images were captured by fluorescence microscopy and apoptotic cells were analyzed by use of Image-Pro Plus. […]

[5] = molecular target: M2 receptors; details: no reference given; cited from earlier work
Experimental: To investigate the interaction of CST with M2 receptor and as an endogenous ligand, we used radioactive isotope [^125-I]-labeled CST (0.4 μM) as a ligand, and N-methylscopolamine (NMS:0.045 nM to 0.3 μM) as a “cold” ligand were co-incubated with membrane protein (200 μg) in H9c2 cardiomyblasts.

[6] = system: isolated heart; assay: Langendorff-perfused heart, global ischemia/reperfusion (I/R) with CST pretreatment; design: species or system rat; details: AF-DX116 pretreating for 20 min before CP, then I/R
Experimental: Rats fed a standard diet were heparinized (200 IU) and anesthetized with sodium pentobarbital (50 mg/kg, intraperitoneally). Hearts were excised and rapidly moved to a Langendorff perfusion system as described. After 30-min stabilization, hearts underwent 30-min normoxia, zero-flow global ischemia for 30 min, followed by 60-min reperfusion (I/R group). For the CP group, CST (100 nM) was infused for 15 min before ischemia (Fig. 1A). Cardiac function including left ventricular end diastolic pressure (LVEDP), LV systolic pressure (LVSP), and maximal and minimal LV pressure development (±dp/dtmax) were recorded. […] Images in each slice were analyzed by image pro plus software. The volume of infarcted tissue (white) and the risk zone (total) was then calculated by each area […] slice thickness and summing the results. The infarct size was expressed as the percentage of the risk zone[36]. Total 12 rats were sacrificed for the infarct size assay. Other rats, while finished I/R procedure, the apex of heart (about 100 mg) was quickly removed for western blot assay. The residual heart were cut about 5 mm high (from the site of apex), embedded with OCT then the frozen slice were prepared for apoptosis staining (Methods of western blot and apoptosis assay are available in the Supplementary methods online).

[7] = molecular target: T1, M2 muscarinic acetylcholine receptor (Rattus norvegicus, UniProt P10980); assay: radioligand binding (Scatchard)
T1 chain: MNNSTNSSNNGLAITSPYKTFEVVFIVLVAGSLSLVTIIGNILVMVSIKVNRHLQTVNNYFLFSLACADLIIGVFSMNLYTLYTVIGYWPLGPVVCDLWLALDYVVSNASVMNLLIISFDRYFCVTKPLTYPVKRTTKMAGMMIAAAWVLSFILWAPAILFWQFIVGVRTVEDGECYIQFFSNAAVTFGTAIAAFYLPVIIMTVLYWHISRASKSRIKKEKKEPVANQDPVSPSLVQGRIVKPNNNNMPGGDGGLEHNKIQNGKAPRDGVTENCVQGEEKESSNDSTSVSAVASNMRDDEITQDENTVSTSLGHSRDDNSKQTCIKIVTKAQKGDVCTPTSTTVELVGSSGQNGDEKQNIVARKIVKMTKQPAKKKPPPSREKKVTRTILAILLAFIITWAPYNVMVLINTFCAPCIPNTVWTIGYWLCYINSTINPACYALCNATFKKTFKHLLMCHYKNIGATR

[8] = molecular target: T1, M2 muscarinic acetylcholine receptor; assay: radioligand competition binding

C[C@@H]1OC(=O)[C@H]2C[C@H]3CCCC[C@@H]3[C@@H](/C=C/[C@H]3CCC[C@H](C)N3C)[C@@H]12 [himbacine]
effect of antagonist on CST lowering of isoproterenol-induced cAMP [1]: blocked | effect of antagonist alone on increased cAMP level with isoproterenol [1]: did not affect | effect of antagonist on CST lowering of forskolin-induced cAMP [1]: blocked

COc1ccc2cc3[n+](cc2c1OC)CCc1cc2c(cc1-3)OCO2 [Berberine]
Kd [2]: 5400 nM

Gly^364Ser variant peptide: Gly364Ser variant of human catestatin
infarct size [3]: lowered

COc1cccc(-c2cc(=O)c3ccccc3o2)c1N [PD98059]
effect of inhibitor on CST protection on cell apoptosis [4]: reversed

COC[C@H]1OC(=O)c2coc3c2[C@@]1(C)C1=C(C3=O)[C@@H]2CCC(=O)[C@@]2(C)C[C@H]1OC(C)=O [wortmannin]
effect of inhibitor on CST protection on cell apoptosis [4]: reversed

CCN(CC)CC1CCCCN1CC(=O)N1c2ccccc2C(=O)Nc2cccnc21 (centres unmarked) [AF-DX116, Otenzepad]
IC50 [5]: 50 nM | effect of antagonist on CST lowering of isoproterenol-induced cAMP [1]: blocked | effect of antagonist alone on increased cAMP level with isoproterenol [1]: did not affect | effect of antagonist on CST lowering of forskolin-induced cAMP [1]: blocked | effect on the protective effects of CP on infarct size, LDH leakage and cTNI level [6]: blocked

C[N+](C)(C)CCOC(N)=O [carbamoylcholine]
cAMP level induced by isoproterenol ([1]; CST 50 nM or carbamoylcholine 100 μM with isoproterenol 1 μM for 30 min): lowered

SSMKLSFRARGYGFRGPGPQL (AF-DX116 50 nM)
Kd [7]: 45.8 nM | IC50 [8]: 36 nM

SSMKLSFRARGYGFRGPGPQL
Kd [7]: 18.6 nM | IC50 [8]: 25.7 nM
